Measured values published in patent US20040214867A1, “Quaternary salts of n-substituted cyclic or acyclic amines as pharmaceuticals” (priority 2003, published 2004).

Test system: citric acid-induced cough responses
Experiment: Citric acid-induced cough in conscious guinea-pigs (aerosol pre-treatment)
Assay type: in vivo, guinea-pig
Details: aerosol 10.0 mg/ml immediately before exposure to citric acid (1M); compared with control (procaine) pre-treated guinea pigs; 15 minute observation period
Description: The following method is one of the general methods available to determine the antitussive activity of the compounds of the present invention.
Male albino Dunkin-Hartley strain guinea-pigs (weight 300-400 g) can be obtained from various commercial suppliers.
The method is a modification of that described by Adcock J. J., Schneider C. and Smith T. W., “Effects of Morphine and a Novel Opioid Pentapeptide BW443C, on Cough, Nociception and Ventilation in the Unanaesthetized Guinea-pig”, Br. J. Pharmacol., 93, 93-100 (1988). […]
Cylinder air is introduced into the exposure chamber at a flow rate of 1 liter/min maintained by a needle valve and monitored by a rotameter. […]
Cough responses are induced by exposure to an aerosol of citric acid (1M) for 10 minutes. Animals are continuously monitored by trained observer, and the number of coughs are counted during a 15 minute period from commencement of the citric acid aerosol administration. […]
The three types of response are differentiated primarily by sound and visual observation. […] Each cough is marked on the Grass polygraph paper trace, and from these record numbers, frequency and time of onset of coughs are determined. […]
Quantities of drugs are weighed out and dissolved in a vehicle. […] The sequence of pre-treatment administration is determined according to a 4×4 Latin Square design. […]

SMILES: CC[N+](C)(CC)CCOC(=O)c1ccc(N)cc1.[I-] [N-methyl-procaine iodide, 2-[(4-Aminobenzoyl)oxy]-N,N-diethyl-N-methylethanaminium iodide]
- inhibition of cough responses: > 50%
